Laboratory results published in patent US9758445B2, “Preparation of surfactants via cross-metathesis” (MATERIA, INC., priority 2013, dated 2017).
Like-named read-outs stand apart in the source and are kept apart here.

Assays:
[1] = purity 91%; N. M. van Os et al. Tenside Surf. Det. 1992, 29 175; cited from earlier work
[2] = Surface tension above CMC; format: physicochemical
[3] = at 20° C.; purity 91%; N. M. van Os et al. Tenside Surf. Det. 1992, 29 175; cited from earlier work
[4] = Krafft Point from the abrupt increase in electrical conductivity as a function of temperature; format: physicochemical
Method: Krafft Point or Krafft Temperature is defined as the […]. Surfactants form micelles above their Krafft Point and the solubility in water increases abruptly. The Krafft point was determined by the abrupt increase in the electrical conductivity of as a function of temperature. The intersection of the two solubility lines is the Krafft Point.

[5] = Critical Micelle Concentration (CMC) from the electrical conductivity-concentration curve at constant temperature; format: physicochemical
Method: The Critical Micelle Concentration (CMC) is defined as the concentration of surfactants above which micelles form and all additional surfactants added to the system go to micelles. The CMC is measured by the electrical conductivity-concentration curve at constant temperature.

[6] = Surfactant Foaming Test in tap water; format: physicochemical; design: key: A: No Foam Generated; B: Small Volume of Foam Generated; C: Large Volume of Foam Generated; details: surfactant 0.023 wt %, tap water 7.0 mL, 23° C., shaken vigorously, foaming recorded after standing 3 minutes
Method: To a 20 mL scintillation vial was added surfactant (0.023 wt %) and tap water (7.0 mL, 23° C.). The vial was sealed and the solution was shaken vigorously. The solution was allowed to stand for 3 minutes and foaming was recorded.

| SMILES | Surfactant Foaming Test Results [6] | further results |
| --- | --- | --- |
| CCCCCCCCC(C)c1ccc(S(=O)(=O)O)cc1 (centres unmarked) [2-PhC10 LAS, sodium 4-(decan-2-yl)benzenesulfonate] |  | Krafft Point [1]: 22.0 °C (NR^2); Surface Tension [2]: 43 dynes/cm; CMC (mmol/L) at Temp (° C.) [3]: 4.5 at 20 °C mmol/L; Krafft Point [4]: 22.5 °C; CMC (mmol/L) at Temp (° C.) ([5]; at 22.0° C.): 4.4 at 22.0 °C mmol/L |
| CCCCCCCCCC(C)c1ccc(S(=O)(=O)O)cc1 (centres unmarked) [2-PhC11 LAS, sodium 4-(undecan-2-yl)benzenesulfonate] |  | Surface Tension [2]: 43 dynes/cm; Krafft Point [4]: 23.0 °C; CMC (mmol/L) at Temp (° C.) ([5]; at 22.0° C.): 1.9 at 22.0 °C mmol/L |
| CCCCCCCCCCC(C)c1ccc(S(=O)(=O)O)cc1 (centres unmarked) [2-PhC12 LAS, sodium 4-(dodecan-2-yl)benzenesulfonate] |  | Surface Tension [2]: 41 dynes/cm; Krafft Point [4]: 22.5 °C; CMC (mmol/L) at Temp (° C.) ([5]; at 22.5° C.): 2.1 at 22.5 °C mmol/L |
| CCCCCCCCCCCCCCC(C)c1ccc(S(=O)(=O)O)cc1 (centres unmarked) [2-PhC16 LAS, sodium 4-(hexadecan-2-yl)benzenesulfonate] |  | Surface Tension [2]: 44 dynes/cm; Krafft Point [4]: 45.0 °C; CMC (mmol/L) at Temp (° C.) ([5]; at 44.0° C.): 1.5 at 44.0 °C mmol/L |
| CCCCCCCCC(C)c1ccc(COCCOCCOCCOC)cc1 (centres unmarked) [R=CH2O(CH2CH2O)3CH3; n=7, 1-(4-(Decan-2-yl)phenyl)-2,5,8,11-tetraoxadodecane] | A |  |
| CCCCCCCCCCC(C)c1ccc(COCCOCCOCCOC)cc1 (centres unmarked) [R=CH2O(CH2CH2O)3CH3; n=9, 1-(4-(Dodecan-2-yl)phenyl)-2,5,8,11-tetraoxadodecane] | B |  |
| CCCCCCCCCCCCC(C)c1ccc(COCCOCCOCCOC)cc1 (centres unmarked) [R=CH2O(CH2CH2O)3CH3; n=11, 1-(4-(Tetradecan-2-yl)phenyl)-2,5,8,11-tetraoxadodecane] | B |  |
| CCCCCCCCC(C)c1ccc(COCCOCCOCCO)cc1 (centres unmarked) [R=CH2O(CH2CH2O)3H; n=7, 2-(2-(2-((4-(Decan-2-yl)benzyl)oxy)ethoxy)ethoxy)ethanol] | C |  |
| CCCCCCCCCC(C)c1ccc(COCCOCCOCCO)cc1 (centres unmarked) [R=CH2O(CH2CH2O)3H; n=8, 2-(2-(2-((4-(undecan-2-yl)benzyl)oxy)ethoxy)ethoxy)ethanol] | C |  |
| CCCCCCCCCCC(C)c1ccc(COCCOCCOCCO)cc1 (centres unmarked) [R=CH2O(CH2CH2O)3H; n=9, 2-(2-(2-((4-(dodecan-2-yl)benzyl)oxy)ethoxy)ethoxy)ethanol] | C |  |
| CCCCCCCCCCCC(C)c1ccc(COCCOCCOCCO)cc1 (centres unmarked) [R=CH2O(CH2CH2O)3H; n=10, 2-(2-(2-((4-(tridecan-2-yl)benzyl)oxy)ethoxy)ethoxy)ethanol] | C |  |
| CCCCCCCCCCCCC(C)c1ccc(COCCOCCOCCO)cc1 (centres unmarked) [R=CH2O(CH2CH2O)3H; n=11, 2-(2-(2-((4-(tetradecan-2-yl)benzyl)oxy)ethoxy)ethoxy)ethanol] | C |  |
| CCCCCCCCC(C)c1ccc(COCCOCCOCCOCCOC)cc1 (centres unmarked) [R=CH2O(CH2CH2O)4CH3; n=7, 1-(4-(Decan-2-yl)phenyl)-2,5,8,11,14-pentaoxapentadecane] | C |  |
| CCCCCCCCCC(C)c1ccc(COCCOCCOCCOCCOC)cc1 (centres unmarked) [R=CH2O(CH2CH2O)4CH3; n=8, 1-(4-(Undecan-2-yl)phenyl)-2,5,8,11,14-pentaoxapentadecane] | B |  |
| CCCCCCCCCCC(C)c1ccc(COCCOCCOCCOCCOC)cc1 (centres unmarked) [R=CH2O(CH2CH2O)4CH3; n=9, 1-(4-(Dodecan-2-yl)phenyl)-2,5,8,11,14-pentaoxapentadecane] | C |  |
| CCCCCCCCCCCC(C)c1ccc(COCCOCCOCCOCCOC)cc1 (centres unmarked) [R=CH2O(CH2CH2O)4CH3; n=10, 1-(4-(Tridecan-2-yl)phenyl)-2,5,8,11,14-pentaoxapentadecane] | B |  |
| CCCCCCCCCCCCC(C)c1ccc(COCCOCCOCCOCCOC)cc1 (centres unmarked) [R=CH2O(CH2CH2O)4CH3; n=11, 1-(4-(Tetradecan-2-yl)phenyl)-2,5,8,11,14-pentaoxapentadecane] | B |  |
| CCCCCCCCCCCCCCC(C)c1ccc(COCCOCCOCCOCCOC)cc1 (centres unmarked) [R=CH2O(CH2CH2O)4CH3; n=13, 1-(4-(Hexadecan-2-yl)phenyl)-2,5,8,11,14-pentaoxapentadecane] | B |  |
| CCCCCCCCC(C)c1ccc(COCCOCCOCCOCCO)cc1 (centres unmarked) [R=CH2O(CH2CH2O)4H; n=7, 1-(4-(Decan-2-yl)phenyl)-2,5,8,11-tetraoxatridecan-13-ol] | C |  |
| CCCCCCCCCC(C)c1ccc(COCCOCCOCCOCCO)cc1 (centres unmarked) [R=CH2O(CH2CH2O)4H; n=8, 1-(4-(Undecan-2-yl)phenyl)-2,5,8,11-tetraoxatridecan-13-ol] | C |  |
| CCCCCCCCCCC(C)c1ccc(COCCOCCOCCOCCO)cc1 (centres unmarked) [R=CH2O(CH2CH2O)4H; n=9, 1-(4-(Dodecan-2-yl)phenyl)-2,5,8,11-tetraoxatridecan-13-ol] | C |  |
| CCCCCCCCCCCC(C)c1ccc(COCCOCCOCCOCCO)cc1 (centres unmarked) [R=CH2O(CH2CH2O)4H; n=10, 1-(4-(Tridecan-2-yl)phenyl)-2,5,8,11-tetraoxatridecan-13-ol] | C |  |
| CCCCCCCCCCCCC(C)c1ccc(COCCOCCOCCOCCO)cc1 (centres unmarked) [R=CH2O(CH2CH2O)4H; n=11, 1-(4-(Tetradecan-2-yl)phenyl)-2,5,8,11-tetraoxatridecan-13-ol] | C |  |

| SMILES | Surfactant Foaming Test Results [6] | further results |
| --- | --- | --- |
| CCCCCCCCCCCCCCC(C)c1ccc(COCCOCCOCCOCCO)cc1 (centres unmarked) [R=CH2O(CH2CH2O)4H; n=13, 1-(4-(Hexadecan-2-yl)phenyl)-2,5,8,11-tetraoxatridecan-13-ol] | C |  |
| CCCCCCCCC(C)c1ccc(COCCOC)cc1 (centres unmarked) [R=CH2OCH2CH2OCH3; n=7, 1-(Decan-2-yl)-4-((2-methoxyethoxy)methyl)benzene] | B |  |
| CCCCCCCCCCCC(C)c1ccc(COCCOC)cc1 (centres unmarked) [R=CH2OCH2CH2OCH3; n=10, 1-((2-Methoxyethoxy)methyl)-4-(tridecan-2-yl)benzene] | C |  |
| CCCCCCCCCCCCC(C)c1ccc(COCCOC)cc1 (centres unmarked) [R=CH2OCH2CH2OCH3; n=11, 1-((2-Methoxyethoxy)methyl)-4-(tetradecan-2-yl)benzene] | C |  |
| CCCCCCCCCCCCCCC(C)c1ccc(COCCOC)cc1 (centres unmarked) [R=CH2OCH2CH2OCH3; n=13, 1-(Hexadecan-2-yl)-4-((2-methoxyethoxy)methyl)benzene] | C |  |
| CCCCCCCCC(C)c1ccc(COCCO)cc1 (centres unmarked) [R=CH2OCH2CH2OH; n=7, 2-((4-(Decan-2-yl)benzyl)oxy)ethanol] | A |  |
| CCCCCCCCCC(C)c1ccc(COCCO)cc1 (centres unmarked) [R=CH2OCH2CH2OH; n=8, 2-((4-(Undecan-2-yl)benzyl)oxy)ethanol] | A |  |
| CCCCCCCCCCC(C)c1ccc(COCCO)cc1 (centres unmarked) [R=CH2OCH2CH2OH; n=9, 2-((4-(Dodecan-2-yl)benzyl)oxy)ethanol] | A |  |
| CCCCCCCCCCCC(C)c1ccc(COCCO)cc1 (centres unmarked) [R=CH2OCH2CH2OH; n=10, 2-((4-(Tridecan-2-yl)benzyl)oxy)ethanol] | A |  |
| CCCCCCCCCCCCC(C)c1ccc(COCCO)cc1 (centres unmarked) [R=CH2OCH2CH2OH; n=11, 2-((4-(Tetradecan-2-yl)benzyl)oxy)ethanol] | A |  |
| CCCCCCCCCCCCCCC(C)c1ccc(COCCO)cc1 (centres unmarked) [R=CH2OCH2CH2OH; n=13, 2-((4-(Hexadecan-2-yl)benzyl)oxy)ethanol] | A |  |
| CCCCCCCCC(C)c1ccc(CO)cc1 (centres unmarked) [R=CH2OH; n=7, (4-(Decan-2-yl)phenyl)methanol] | A |  |
| CCCCCCCCCC(C)c1ccc(CO)cc1 (centres unmarked) [R=CH2OH; n=8, (4-(Undecan-2-yl)phenyl)methanol] | A |  |
| CCCCCCCCCCC(C)c1ccc(CO)cc1 (centres unmarked) [R=CH2OH; n=9, (4-(Dodecan-2-yl)phenyl)methanol] | A |  |
| CCCCCCCCCCCC(C)c1ccc(CO)cc1 (centres unmarked) [R=CH2OH; n=10, (4-(Tridecan-2-yl)phenyl)methanol] | A |  |
| CCCCCCCCCCCCC(C)c1ccc(CO)cc1 (centres unmarked) [R=CH2OH; n=11, (4-(Tetradecan-2-yl)phenyl)methanol] | A |  |
| CCCCCCCCCCCCCCC(C)c1ccc(CO)cc1 (centres unmarked) [R=CH2OH; n=13, (4-(Hexadecan-2-yl)phenyl)methanol] | A |  |
| CCCCCCCCC(C)c1ccccc1 (centres unmarked) [R=H; n=7, 2-Phenyldecane] | A |  |
| CCCCCCCCCC(C)c1ccccc1 (centres unmarked) [R=H; n=8, 2-Phenylundecane] | A |  |
| CCCCCCCCCCC(C)c1ccccc1 (centres unmarked) [R=H; n=9, 2-Phenyldodecane] | A |  |
| CCCCCCCCCCCC(C)c1ccccc1 (centres unmarked) [R=H; n=10, 2-phenyltridecane] | A |  |
| CCCCCCCCCCCCC(C)c1ccccc1 (centres unmarked) [R=H; n=11, 2-phenyltetradecane] | A |  |
| CCCCCCCCCCCCCCC(C)c1ccccc1 (centres unmarked) [R=H; n=13, 2-Phenylhexadecane] | A |  |
